The values below come from ChEMBL document CHEMBL4265938, “Donepezil-based multi-functional cholinesterase inhibitors for treatment of Alzheimer's disease” (Eur J Med Chem, 2018).

Each structure is given as a SMILES string.

Series [1] deals with T1, Acetylcholinesterase (Electrophorus electricus, UniProt O42275). Description: Inhibition of electric eel AChE using acetylthiocholine iodide as substrate preincubated for 20 mins followed by substrate addition measured after 5 mins by Ellman's method. For orientation: In Ellman's method for cholinesterases, released thiocholine reacts with DTNB.
T1 sequence (O42275 whole entry): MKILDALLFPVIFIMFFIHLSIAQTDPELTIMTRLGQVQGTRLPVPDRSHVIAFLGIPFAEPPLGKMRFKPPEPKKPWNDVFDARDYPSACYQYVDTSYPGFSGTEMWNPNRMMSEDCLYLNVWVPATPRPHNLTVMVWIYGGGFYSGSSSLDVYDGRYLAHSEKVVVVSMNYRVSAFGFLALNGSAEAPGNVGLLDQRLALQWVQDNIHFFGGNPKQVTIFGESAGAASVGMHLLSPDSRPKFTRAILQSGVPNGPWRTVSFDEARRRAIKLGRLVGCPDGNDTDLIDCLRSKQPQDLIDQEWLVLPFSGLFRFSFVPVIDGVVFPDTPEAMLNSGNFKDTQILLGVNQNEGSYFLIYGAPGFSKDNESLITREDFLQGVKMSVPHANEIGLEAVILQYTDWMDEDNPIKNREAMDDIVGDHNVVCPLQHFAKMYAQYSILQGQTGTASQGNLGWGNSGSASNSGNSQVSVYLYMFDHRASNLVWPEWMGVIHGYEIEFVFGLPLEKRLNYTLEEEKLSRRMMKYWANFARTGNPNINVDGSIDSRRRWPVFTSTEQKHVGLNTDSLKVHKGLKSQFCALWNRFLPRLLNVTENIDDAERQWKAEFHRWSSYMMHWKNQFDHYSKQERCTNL
Series [2] concerns the target T2, Cholinesterase (Equus caballus, UniProt P81908). Description: Inhibition of equine serum BuChE using butyrylthiocholine iodide as substrate preincubated for 20 mins followed by substrate addition measured after 30 mins by Ellman's method.
Series [3] has as its target T3, Amine oxidase [flavin-containing] B (Homo sapiens, UniProt P27338).
T3 sequence (P27338 whole entry): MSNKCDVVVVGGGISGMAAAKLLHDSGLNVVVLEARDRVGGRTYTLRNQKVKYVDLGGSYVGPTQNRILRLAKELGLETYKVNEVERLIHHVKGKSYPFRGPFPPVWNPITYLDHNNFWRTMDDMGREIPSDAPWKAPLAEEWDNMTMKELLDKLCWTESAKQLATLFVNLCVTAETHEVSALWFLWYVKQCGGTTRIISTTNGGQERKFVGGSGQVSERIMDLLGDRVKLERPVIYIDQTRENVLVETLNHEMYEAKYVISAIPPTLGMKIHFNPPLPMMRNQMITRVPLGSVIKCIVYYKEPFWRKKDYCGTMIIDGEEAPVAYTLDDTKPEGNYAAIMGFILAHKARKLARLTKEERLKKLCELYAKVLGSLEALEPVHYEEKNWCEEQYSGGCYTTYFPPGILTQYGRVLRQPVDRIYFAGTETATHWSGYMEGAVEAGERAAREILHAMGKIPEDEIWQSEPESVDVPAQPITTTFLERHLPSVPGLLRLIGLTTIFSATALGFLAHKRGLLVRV
As to the kind of experiment: Inhibition of recombinant human MAOB using tyramine hydrochloride as substrate preincubated for 30 mins followed by substrate addition measured for 1 hr by fluorometric method.

For a further series, the target named is Beta-secretase 1 (Homo sapiens, UniProt P56817). As to the kind of experiment: Inhibition of BACE-1 (unknown origin).
Sequence of Beta-secretase 1 (P56817 whole entry): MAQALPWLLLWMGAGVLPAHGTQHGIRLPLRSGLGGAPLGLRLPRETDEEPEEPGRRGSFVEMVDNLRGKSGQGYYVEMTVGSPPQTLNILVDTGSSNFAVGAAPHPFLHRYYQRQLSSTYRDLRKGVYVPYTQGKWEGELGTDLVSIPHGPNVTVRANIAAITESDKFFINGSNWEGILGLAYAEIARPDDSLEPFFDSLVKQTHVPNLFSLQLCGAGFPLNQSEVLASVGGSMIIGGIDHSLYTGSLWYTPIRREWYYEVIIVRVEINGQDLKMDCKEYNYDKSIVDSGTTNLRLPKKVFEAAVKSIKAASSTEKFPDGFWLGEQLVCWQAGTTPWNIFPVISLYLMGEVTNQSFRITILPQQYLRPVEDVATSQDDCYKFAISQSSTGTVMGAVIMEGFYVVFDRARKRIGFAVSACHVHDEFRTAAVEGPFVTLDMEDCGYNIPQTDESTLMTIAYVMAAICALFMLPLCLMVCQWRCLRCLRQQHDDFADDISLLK
For series [4], the target named is T2, Cholinesterase. As to the kind of experiment: Mixed type inhibition of equine serum BuChE.
The target in series [5] is T1, Acetylcholinesterase. As to the kind of experiment: Mixed type inhibition of electric eel AChE.
A short description of series [6]: Selectivity ratio of IC50 for electric eel AChE to IC50 for equine serum BuChE.
For series [7], the target named is T1, Acetylcholinesterase. Description: Inhibition of electric eel AChE using acetylthiocholine iodide as substrate preincubated for 5 mins followed by substrate addition measured after 5 mins by Ellman's method.
Series [8] deals with T4, Acetylcholinesterase (Homo sapiens, UniProt P22303). Description: Inhibition of recombinant human AChE using acetylthiocholine iodide as substrate preincubated for 5 mins followed by substrate addition measured after 5 mins by Ellman's method.
T4 sequence (P22303 whole entry): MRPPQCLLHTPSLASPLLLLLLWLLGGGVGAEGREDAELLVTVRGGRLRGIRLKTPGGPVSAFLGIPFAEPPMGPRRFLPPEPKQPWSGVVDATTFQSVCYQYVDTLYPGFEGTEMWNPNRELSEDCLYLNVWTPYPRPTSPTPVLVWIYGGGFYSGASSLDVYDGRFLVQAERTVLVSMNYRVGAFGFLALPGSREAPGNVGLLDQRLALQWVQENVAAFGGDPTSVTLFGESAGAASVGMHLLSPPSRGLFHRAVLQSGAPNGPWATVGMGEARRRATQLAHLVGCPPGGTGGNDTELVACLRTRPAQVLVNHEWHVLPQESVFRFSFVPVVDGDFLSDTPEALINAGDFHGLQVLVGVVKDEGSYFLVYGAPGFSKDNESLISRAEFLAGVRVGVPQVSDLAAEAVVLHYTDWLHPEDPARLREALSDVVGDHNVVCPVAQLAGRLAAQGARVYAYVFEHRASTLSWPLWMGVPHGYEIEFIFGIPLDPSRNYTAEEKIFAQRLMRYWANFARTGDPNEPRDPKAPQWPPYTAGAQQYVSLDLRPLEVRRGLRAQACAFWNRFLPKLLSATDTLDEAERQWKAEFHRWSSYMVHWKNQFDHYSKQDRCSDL
For series [9], the target named is Amyloid-beta precursor protein (Homo sapiens) (UniProt P05067). Description: Inhibition of recombinant human HFIP-pretreated amyloid beta (1 to 42) self aggregation at 10 uM after 24 hrs by ThT-based fluorometric method relative to control.
Sequence of Amyloid-beta precursor protein (Homo sapiens) (P05067 whole entry): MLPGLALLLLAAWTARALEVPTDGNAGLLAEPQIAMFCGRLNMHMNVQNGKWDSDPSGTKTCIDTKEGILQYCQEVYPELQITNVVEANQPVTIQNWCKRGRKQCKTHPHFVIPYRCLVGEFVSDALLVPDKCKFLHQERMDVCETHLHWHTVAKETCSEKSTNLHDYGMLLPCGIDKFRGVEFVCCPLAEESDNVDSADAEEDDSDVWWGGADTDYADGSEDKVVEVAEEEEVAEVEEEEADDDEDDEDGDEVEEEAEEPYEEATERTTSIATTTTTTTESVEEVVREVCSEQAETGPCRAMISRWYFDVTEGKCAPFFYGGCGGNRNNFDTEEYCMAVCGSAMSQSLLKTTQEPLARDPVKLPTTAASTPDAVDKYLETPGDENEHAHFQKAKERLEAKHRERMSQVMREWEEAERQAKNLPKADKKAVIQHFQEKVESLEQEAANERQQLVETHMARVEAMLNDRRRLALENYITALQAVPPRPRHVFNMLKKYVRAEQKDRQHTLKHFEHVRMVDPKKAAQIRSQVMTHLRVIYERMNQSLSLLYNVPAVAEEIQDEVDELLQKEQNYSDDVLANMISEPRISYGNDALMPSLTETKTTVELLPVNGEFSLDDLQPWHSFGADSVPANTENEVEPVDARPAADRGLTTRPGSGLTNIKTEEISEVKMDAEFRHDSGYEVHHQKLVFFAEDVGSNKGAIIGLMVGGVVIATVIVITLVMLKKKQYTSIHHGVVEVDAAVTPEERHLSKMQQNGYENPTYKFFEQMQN
Series [10] has as its target T1, Acetylcholinesterase. Description: Inhibition of electric eel AChE.
The target in series [11] is T2, Cholinesterase. As to the kind of experiment: Inhibition of equine serum BuChE.
In series [12] the target is T5, Amine oxidase [flavin-containing] A (Homo sapiens, UniProt P21397).
T5 sequence (P21397 whole entry): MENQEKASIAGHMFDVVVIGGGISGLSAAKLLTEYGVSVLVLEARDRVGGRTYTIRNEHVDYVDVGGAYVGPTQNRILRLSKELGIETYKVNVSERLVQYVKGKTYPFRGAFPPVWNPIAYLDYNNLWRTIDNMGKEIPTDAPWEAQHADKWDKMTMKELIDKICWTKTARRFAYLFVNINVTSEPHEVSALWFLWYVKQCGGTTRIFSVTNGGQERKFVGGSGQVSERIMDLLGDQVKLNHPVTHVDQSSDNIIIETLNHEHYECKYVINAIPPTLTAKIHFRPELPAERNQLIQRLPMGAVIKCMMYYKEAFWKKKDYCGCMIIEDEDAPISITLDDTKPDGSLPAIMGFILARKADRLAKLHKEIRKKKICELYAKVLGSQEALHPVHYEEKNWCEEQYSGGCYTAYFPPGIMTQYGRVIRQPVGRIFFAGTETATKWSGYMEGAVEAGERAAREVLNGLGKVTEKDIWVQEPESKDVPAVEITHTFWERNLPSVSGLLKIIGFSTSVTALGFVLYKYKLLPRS
Description: Inhibition of human MAOA.

In series [13] the target is T3, Amine oxidase [flavin-containing] B. Description: Inhibition of human MAOB.
Series [14] is described as follows: Effective permeability of the compound. The series is classed as ADME. To be noted: not told; read-out: Peff.
A short description of series [15]: Antioxidant activity assessed as trolox equivalent of AAPH-induced radical scavenging activity at 70 nM preincubated for 15 mins followed by AAPH addition measured every min for 80 mins by ORAC-FL assay. The series is classed as functional.
The target of series [16] is T4, Acetylcholinesterase. As to the kind of experiment: Inhibition of recombinant human AChE using acetylthiocholine iodide as substrate preincubated for 20 mins followed by substrate addition measured after 5 mins by Ellman's method.

One may read the IC50 as the concentration that gives 50% inhibition. Broadly, the inhibition is the relative decrease from the control value, in per cent.

T2 sequence (P81908 whole entry): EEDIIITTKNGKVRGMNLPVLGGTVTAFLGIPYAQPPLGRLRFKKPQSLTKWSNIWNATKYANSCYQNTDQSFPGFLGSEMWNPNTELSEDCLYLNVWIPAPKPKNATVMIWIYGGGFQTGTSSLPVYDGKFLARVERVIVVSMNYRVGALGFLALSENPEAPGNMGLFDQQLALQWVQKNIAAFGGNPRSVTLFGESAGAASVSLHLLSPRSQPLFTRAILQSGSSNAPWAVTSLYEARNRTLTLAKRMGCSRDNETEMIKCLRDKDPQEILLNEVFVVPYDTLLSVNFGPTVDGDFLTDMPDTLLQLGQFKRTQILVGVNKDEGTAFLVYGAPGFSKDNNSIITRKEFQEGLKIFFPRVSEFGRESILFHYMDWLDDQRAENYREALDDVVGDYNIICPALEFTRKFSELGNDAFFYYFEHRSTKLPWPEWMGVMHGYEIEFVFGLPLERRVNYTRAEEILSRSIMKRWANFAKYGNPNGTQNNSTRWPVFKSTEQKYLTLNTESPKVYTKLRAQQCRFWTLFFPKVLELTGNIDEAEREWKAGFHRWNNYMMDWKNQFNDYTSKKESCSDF

As for `C#CCNc1nc(NCCCC2CCN(Cc3ccccc3)CC2)c(C#N)cc1C#N`, the figures for the IC50 (at Acetylcholinesterase [1]; at Cholinesterase [2]; in [3]) were 1.1 nM, 600 nM and 3950 nM, respectively.
Turning to `COc1cc2c(cc1OC)C(=O)/C(=C/C1CCN(Cc3ccccc3)CC1)C2`, 697 nM corresponded to half-maximal inhibition on Beta-secretase 1 (IC50).
Same read-out and setting: with `COc1ccc2c(c1)C/C(=C\C1CCN(Cc3ccccc3)CC1)C2=O` the figure was 333 nM.
As to `Cn1c(=O)n(C)c2cc(S(=O)(=O)NCC3CCN(Cc4ccc(F)cc4)CC3)ccc21`, the figures for the IC50 on Cholinesterase [4] and at Acetylcholinesterase [5] were 31 nM and 2050 nM, respectively. Besides, in series [6], the Ratio IC50 is 66.1.
Consider `CN(CCCCCN1C(=O)c2ccccc2S1(=O)=O)Cc1ccccc1`, for which the figures for the IC50 on Acetylcholinesterase [7] and at Acetylcholinesterase [8] were 36 nM and 33 nM, respectively. The inhibition in series [9] came out at 22.2%.
As to `O=C(NCCC1CCN(Cc2ccccc2)CC1)c1ccc(Cl)cn1`, the IC50 against Acetylcholinesterase [10] is 220 nM; at Cholinesterase [11], 1230 nM; in [12] it was 13400 nM; in [13], 3140 nM. In series [14], the Papp came to 10.4 ×10⁻⁶ cm/s.
Turning to `COc1cc(/C=C/C(=O)N(CCCC2CCN(Cc3ccccc3)CC2)CC(=O)Nc2c(C)cccc2Cl)ccc1O`, the IC50 turned out to be 29.3 nM on Acetylcholinesterase [10] and 52.3 nM at Cholinesterase [11]. Further, the Activity in series [15] is 5.32 equiv.
With `C#CCNc1nc(NCCCCC2CCN(Cc3ccccc3)CC2)c(C#N)cc1C#N`, the IC50 on Acetylcholinesterase [16] was 1 nM.
